Results from ChEMBL document CHEMBL1201862, “PubChem BioAssay data set” (2004).
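Five compound concentrations were applied to cells in 96-well plates for 48 hours; endpoints were derived by simple linear interpolation of the resulting dose-response curve. GI50 marks 50% less growth.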 Activity calls are given as the source filed them. No stated cut-off is given here; in the data, active = GI50 up to about 1.1 µM and inactive = higher.

Legend:
Assay in all cases: DTP human tumour cell line panel, 48 h
IGROV-1 = test system: IGROV-1
Malme-3M = test system: Malme-3M
HCT-116 = test system: HCT-116
SW-620 = test system: SW-620
M14 = test system: M14
HT-29 = test system: HT-29
CCRF-CEM = test system: CCRF-CEM
OVCAR-8 = test system: OVCAR-8
MDA-MB-231 = test system: MDA-MB-231
NCI-H460 = test system: NCI-H460
Hs-578T = test system: Hs-578T
NCI-H226 = test system: NCI-H226
HCT-15 = test system: HCT-15
U-251 = test system: U-251
SF-295 = test system: SF-295
MDA-MB-435 = test system: MDA-MB-435
A498 = test system: A498
PC-3 = test system: PC-3
KM12 = test system: KM12
HOP-92 = test system: HOP-92

Row | SMILES | GI50 (IGROV-1) | GI50 (Malme-3M) | GI50 (HCT-116) | GI50 (SW-620) | GI50 (M14) | GI50 (HT-29) | GI50 (CCRF-CEM) | GI50 (OVCAR-8) | GI50 (MDA-MB-231) | GI50 (NCI-H460) | GI50 (Hs-578T) | GI50 (NCI-H226) | GI50 (HCT-15) [µM] | GI50 (U-251) | GI50 (SF-295) | GI50 (MDA-MB-435) | GI50 (A498) | GI50 (PC-3) | GI50 (KM12) | GI50 (HOP-92)
1 | Cc1cc2c(cc1Cl)SC(NNc1ccc([N+](=O)[O-])cc1)=NS2(=O)=O | > 10 µM (inactive) | > 10 µM (inactive) | > 10 µM (inactive) | > 10 µM (inactive) | > 10 µM (inactive) | > 10 µM (inactive) | > 10 µM (inactive) | > 10 µM (inactive) | > 10 µM (inactive) | > 10 µM (inactive) | > 10 µM (inactive) | > 10 µM (inactive) | > 10 | > 10 µM (inactive) | > 10 µM (inactive) | > 10 µM (inactive) | > 10 µM (inactive) | > 10 µM (inactive) | > 10 µM (inactive) | –
2 | Nc1ncnc2c1ccn2CC#CCO | > 100 µM (inactive) | > 100 µM (inactive) | > 100 µM (inactive) | > 100 µM (inactive) | > 100 µM (inactive) | > 100 µM (inactive) | > 100 µM (inactive) | > 100 µM (inactive) | > 100 µM (inactive) | > 100 µM (inactive) | > 100 µM (inactive) | – | > 100 | > 100 µM (inactive) | > 100 µM (inactive) | > 100 µM (inactive) | > 100 µM (inactive) | > 100 µM (inactive) | > 100 µM (inactive) | > 100 µM (inactive)
3 | C#CCCOC(=O)CC1=C(C)/C(=C/c2ccc([S+](C)[O-])cc2)c2ccc(F)cc21 (centres undefined) | 20.8 µM (inactive) | – | 16.8 µM (inactive) | 14.3 µM (inactive) | 16.2 µM (inactive) | – | 15 µM (inactive) | 19.7 µM (inactive) | 8.49 µM (inactive) | 18 µM (inactive) | 13.5 µM (inactive) | 19 µM (inactive) | 12.9 | 15 µM (inactive) | 13.9 µM (inactive) | 4.67 µM (inactive) | 10.6 µM (inactive) | 11.3 µM (inactive) | 10.8 µM (inactive) | 12.6 µM (inactive)
4 | O=C1C=C/C(=N/c2ccccc2)c2ccccc21 | 5.25 µM (inactive) | – | 12.1 µM (inactive) | 7.03 µM (inactive) | 6.21 µM (inactive) | 16.9 µM (inactive) | 4.29 µM (inactive) | 11.3 µM (inactive) | 1.9 µM (inactive) | 3.32 µM (inactive) | 3.74 µM (inactive) | 11.4 µM (inactive) | 9.42 | 7.82 µM (inactive) | 7.4 µM (inactive) | 1.84 µM (inactive) | 21.2 µM (inactive) | 10.5 µM (inactive) | 11.4 µM (inactive) | 14.9 µM (inactive)
5 | CCn1c2nc(=O)n(CCCCCCCCSC(c3ccccc3)(c3ccccc3)c3ccccc3)c(=O)c-2nc2ccccc21 | 31.3 µM (inactive) | – | 3.7 µM (inactive) | 3.41 µM (inactive) | 8.61 µM (inactive) | 2.74 µM (inactive) | 1.43 µM (inactive) | 43.6 µM (inactive) | 45.4 µM (inactive) | 4.62 µM (inactive) | 3.33 µM (inactive) | > 100 µM (inactive) | 8.38 | 19 µM (inactive) | 20.4 µM (inactive) | 6.12 µM (inactive) | 37.8 µM (inactive) | 4.9 µM (inactive) | 9.91 µM (inactive) | 15.5 µM (inactive)
6 | COc1ccc(C2C(=O)c3c(OC)cc(OC)cc3OC2c2cccnc2)cc1 (centres undefined) | > 100 µM (inactive) | 67.9 µM (inactive) | > 100 µM (inactive) | > 100 µM (inactive) | > 100 µM (inactive) | 71.3 µM (inactive) | 66.2 µM (inactive) | > 100 µM (inactive) | > 100 µM (inactive) | 92.7 µM (inactive) | > 100 µM (inactive) | 43.8 µM (inactive) | > 100 | – | 53.5 µM (inactive) | 44.5 µM (inactive) | > 100 µM (inactive) | > 100 µM (inactive) | > 100 µM (inactive) | –
7 | N/N=C(\N)SCCCCCCCCCCS/C(N)=N/N | 18.7 µM (inactive) | 12 µM (inactive) | 26.8 µM (inactive) | 17.7 µM (inactive) | 29.4 µM (inactive) | 14.6 µM (inactive) | 17.2 µM (inactive) | 16.8 µM (inactive) | 20.4 µM (inactive) | 15.9 µM (inactive) | 30.8 µM (inactive) | 27 µM (inactive) | 14.3 | 17.6 µM (inactive) | 23 µM (inactive) | 32.7 µM (inactive) | 15.1 µM (inactive) | 34.6 µM (inactive) | 20 µM (inactive) | –
8 | Nc1nc2c(c(=O)[nH]1)C(c1ccccc1)CC(=O)N2 (centres undefined) | > 100 µM (inactive) | > 100 µM (inactive) | > 100 µM (inactive) | > 100 µM (inactive) | > 100 µM (inactive) | > 100 µM (inactive) | – | > 100 µM (inactive) | > 100 µM (inactive) | > 100 µM (inactive) | > 100 µM (inactive) | > 100 µM (inactive) | > 100 | > 100 µM (inactive) | > 100 µM (inactive) | > 100 µM (inactive) | > 100 µM (inactive) | > 100 µM (inactive) | > 100 µM (inactive) | –
